Test results from patent US10023551B2, “Glutathione-cleavable prodrug and methods of use thereof” (GEORGETOWN UNIVERSITY, priority 2015, dated 2018).
Where two headings read alike, the source gives them in different places.

Tests used:
[1] = Fluorescence properties and activation via GSH cleavage; type: physicochemical; details: for NIR fluorescence emission: without GSH, excitation of 492 nm
Experimental: FIG. 11 contains emission spectra of compounds described herein.
The fluorescence properties and ability to be activated via GSH cleavage of YK-5-252 were evaluated. DCM-NH2 has a NIR fluorescence emission at 650 nm with an excitation of 492 nm (FIG. 11, panel a). […] This can be due to the loss of electron donating ability of the amine group when attached to the linker. To ascertain the stability of YK-5-252 toward GSH, fluorescence was monitored in the presence of GSH.

MCF10A [2] = assay: Inhibition of cell proliferation in normal cells (MCF10A); type: cell-based
Experimental: (§1) To evaluate the toxicity of YK-5-252 in cells, the inhibition of cell proliferation was measured in normal cells (MCF10A) and TNBC cells (MDA-MB-231). […] This lack of selectivity can be attributed to the toxicity of YK-5-252.

MDA-MB-231 [3] = assay: Inhibition of cell proliferation in TNBC cells (MDA-MB-231); type: cell-based
Experimental: as §1

tubulin polymerization = assay: Immunofluorescence staining of tubulin in TNBC cells; type: cell-based; details: 50 nM, MDA-MB-231
Experimental: To determine the biological effect of YK-5-252, its mechanism of action was determined through immunofluorescence staining.

MDA-MB-231 [4] = assay: FACS analysis of cell population containing released DCM-NH2, TNBC cells; type: cell-based; details: treated 48 hours
Experimental: (§2) To further investigate the in vivo activation of YK-5-252, fluorescence-activated cell sorting (FACS) was used. Cells were treated with YK-5-252 for 48 hours. After treatment, FACS analysis was conducted to determine how much of the cell population has DCM-NH2 present. […] HPLC analysis confirmed that CA-4 release is concurrent with the release of DCM-NH2 in a traceless manner (FIG. 14, panels (a-d)). The difference in prodrug cleavage in cancer cells versus normal cells is due to the higher levels of GSH produced in cancer cells.

MCF10A [5] = assay: FACS analysis of cell population containing released DCM-NH2, normal cells; type: cell-based; details: treated 48 hours
Experimental: as §2

[6] = HPLC analysis of cleavage by glutathione; type: physicochemical; details: YK-5-252 200 μM; GSH 50 mM
Experimental: FIG. 14 contains HPLC traces. Panel (a) is a trace of YK-5-252 (200 μM). Panel (b) is a trace of YK-5-252 (200 μM) and glutathione (GSH; 50 mM). Panel (c) is a trace of CA-4 (200 μM). Panel (d) is a trace of DCM (200 μM). […] After treatment with GSH (Panel (b)), the YK-5-252 peak at 10.5 minutes disappeared while two new peaks at 6.8 and 8.6 minutes appears which corresponds to the release of CA-4 and DCM-NH2, respectively (Panels (c) and (d)).
as §2

MDA-MB-231 versus MCF10A = assay: Live cell imaging by confocal microscopy; type: cell-based; details: 1 micromolar, 1 hour
Experimental: FIG. 12, panel (a) contains a confocal microscopy image of MDA-MB-231 cells (triple negative breast cancer cells) treated with YK-5-252 (1 micromolar) for 1 hour. Panel (b) contains a nuclear staining image of the cells with Hoesht dye. Panel (c) contains a merged image of panels (a) and (b). Panel (d) contains a confocal microscopy image of MCF10A (normal breast cells) treated with YK-5-252 (1 micromolar) for 1 hour. Panel (e) contains a nuclear stained image of the cells with Hoescht dye. Panel (f) contains a merged image of panels (d) and (e).
To test the ability of YK-5-252 to selectively release CA-4 in cancer cells, the presence of DCM was monitored through confocal microscopy. […] Also this experiment confirms the utility of YK-5-252 to monitor drug delivery and release in vivo.

[7] = system: MCF-7 and MCF-10A cell lines; assay: In vitro cytotoxicity assay; type: cell-based; details: FIGS. 7 and 8
From the text: FIG. 7 contains plots for use in calculating the IC50 values for YK-5-252 and CA-4 in a MCF-7 cell line.
FIG. 8 contains plots for use in calculating the IC50 values for YK-5-252 and CA-4 in a MCF-10A cell line.
YK-5-252, the designed drug with linked disulfide bond described above, can be cleaved by intracellular glutathione (GSH). Cancer cells have a much higher GSH concentration than normal cells; therefore, this GSH-cleavable prodrug holds promising therapeutic efficacy. Near-infrared photons can deeply penetrate the skin and tissue with minimal damage. […] Due to its NIR fluorescent property, the compound also offers an excellent ability for tracking drug release in vivo.

Row | SMILES | NIR fluorescence emission [1] | GI50 (MCF10A [2]; MCF10A normal breast cells, read-out: GI50 (Table 1)) | GI50 (MCF10A [2]; normal cells (MCF10A), read-out: GI50) | GI50 (MDA-MB-231 [3]; MDA-MB-231 TNBC cells, after 72 hours of treatment, read-out: GI50 (Table 1)) | GI50 (MDA-MB-231 [3]; TNBC cells (MDA-MB-231), read-out: GI50) | disruption of tubulin polymerization (tubulin polymerization; 1 hour) | GI50 (MCF10A [2]; Homo sapiens, MCF-10A, MCF10A normal breast cells, read-out: GI50 (Table 1)) | GI50 (MCF10A [2]; Homo sapiens, MCF-10A, normal cells (MCF10A), read-out: GI50) | GI50 (MDA-MB-231 [3]; Homo sapiens, MDA-MB-231 TNBC cells, after 72 hours of treatment, read-out: GI50 (Table 1)) | GI50 (MDA-MB-231 [3]; Homo sapiens, TNBC cells (MDA-MB-231), read-out: GI50) | cells containing DCM-NH2 (MDA-MB-231 [4]) | cells containing DCM-NH2 (the fluorophore) (MCF10A [5]) | disruption of tubulin polymerization (tubulin polymerization; 6 hours) | fluorescence emission in the presence of GSH ([1]; GSH 250 mM, pH 8, DMSO/PBS 50/50) | prodrug HPLC peak after treatment with GSH [6] | fluorescence in TNBC cells versus normal breast cells (MDA-MB-231 versus MCF10A) | toxicity compared with parent drug [7]
1 | N#CC(C#N)=C1C=C(/C=C/c2ccc(N)cc2)Oc2ccccc21 [DCM-NH2, (E)-2-(2-(4-aminostyryl)-4H-chromen-4-ylidene)malononitrile] | 650 nm |  |  |  |  |  |  |  |  |  |  |  |  |  |  |  | 
2 | COc1ccc(/C=C\c2cc(OC)c(OC)c(OC)c2)cc1O [CA-4, combretastatin A-4, reference compound] |  | < 0.001 nM | < 0.001 nM | 2.81 nM | 28.1 nM | completely inhibited tubulin polymerization |  |  |  |  |  |  |  |  |  |  | 
3 | COc1ccc(/C=C\c2cc(OC)c(OC)c(OC)c2)cc1OC(=O)OCCSSCCOC(=O)Nc1ccc(/C=C/C2=CC(=C(C#N)C#N)c3ccccc3O2)cc1 [YK-5-252] | no NIR emission |  |  |  |  | did not cause disruption of tubulin polymerization | 19.2 nM | ~19.2 nM | 40.3 nM | 40.3 nM | 72% | about 5% | began to disrupt tubulin polymerization | 650 nm | disappeared | higher quantities | much less toxic than its linked parent drug
